Data taken from ChEMBL document CHEMBL5046297, “Discovery of a Colon-Targeted Azo Prodrug of Tofacitinib through the Establishment of Colon-Specific Delivery Systems Constructed by 5-ASA-PABA-MAC and 5-ASA-PABA-Diamine for the Treatment of Ulcerative Colitis” (J Med Chem, 2022).
Activity calls are given as the source filed them. No cut-off for these calls is given here.

Columns and labels:
[1] = Chemical stability in simulated gastric fluid assessed as parent compound remaining incubated for 12 hrs by LC-MS/MS analysis; type: ADME, physicochemical; conditions: simulated gi fluid
[2] = Prodrug conversion in Sprague-Dawley rat assessed as Cmax of tofacitinib at 22.5 mg/kg, po measured up to 20 hrs by LC-MS/MS analysis; type: ADME, organism-based; parameters: route oral, dose 22.5 mg/kg, time <=20; conditions: in vivo
[3] = Acute toxicity in Kunming mouse assessed as change in AST level in liver at 2000 mg/kg, po measured for 7 days; type: organism-based; conditions: in vivo, 168 h, time 7 day
[4] = Ratio of prodrug conversion in BALB/c mouse intestine assessed as tofacitinib AUC(0 to 12 hrs) at 22.5 mg/kg, po to prodrug conversion in BALB/c mouse colon assessed as tofacitinib AUC(0 to 12 hrs) at 22.5 mg/kg, po; type: ADME, organism-based; conditions: in vivo
[5] = tested on: Mus musculus; experiment: Anti-ulcerative colitis activity against oxazolone induced ulcerative colitis Balb/c mouse model assessed as prevention of body weight loss at 1.5 mg/kg, po bid measured after 36 hrs; type: functional, organism-based
[6] = tested on: Mus musculus; experiment: Anti-ulcerative colitis activity against BALB/c mouse model of oxazolone-induced ulcerative colitis assessed as prevention of oxazolone-induced increase in colon density at 1.5 mg/kg, po bid measured after 4 days; type: functional, organism-based; conditions: time 4.0 day
[7] = Prodrug conversion in BALB/c mouse colon assessed as tofacitinib AUC(0 to 12 hrs) at 22.5 mg/kg, po measured upto 12 hrs by LC-MS/MS analysis; type: ADME, organism-based; parameters: route oral, dose 22.5 mg/kg, time <=12; conditions: in vivo
[8] = Chemical stability of compound in pH 4.5 PBS buffer at 100 uM incubated for 24 hrs by HPLC analysis; type: physicochemical; conditions: pH 4.5, 24 h
[9] = tested on: Mus musculus; experiment: Anti-ulcerative colitis activity against BALB/c oxazolone-induced ulcerative colitis mouse model assessed as prevention of oxazolone-induced increase in colon weight at 1.5 mg/kg, po bid measured after 4 days; type: functional, organism-based; conditions: time 4.0 day
[10] = tested on: Mus musculus; experiment: Anti-ulcerative colitis activity against oxazolone induced ulcerative colitis BALB/c mouse model assessed as improved stool blood at 1.5 mg/kg, po bid measured after 36 hrs; type: functional, organism-based
[11] = tested on: Mus musculus; experiment: Anti-ulcerative colitis activity against oxazolone induced ulcerative colitis BALB/c mouse model assessed as improved stool consistency at 1.5 mg/kg, po bid measured after 36 hrs; type: functional, organism-based
[12] = Prodrug conversion in BALB/c mouse jejunum assessed as tofacitinib AUC(0 to 12 hrs) at 22.5 mg/kg, po measured upto 12 hrs by LC-MS/MS analysis; type: ADME, organism-based; parameters: route oral, dose 22.5 mg/kg, time <=12; conditions: in vivo
[13] = Prodrug conversion in Sprague-Dawley rat assessed as Tmax of tofacitinib at 22.5 mg/kg, po measured up to 20 hrs by LC-MS/MS analysis; type: ADME, organism-based; conditions: in vivo
[14] = Prodrug conversion in BALB/c mouse ileum assessed as tofacitinib AUC(0 to 12 hrs) at 22.5 mg/kg, po measured upto 12 hrs by LC-MS/MS analysis; type: ADME, organism-based; parameters: route oral, dose 22.5 mg/kg, time <=12; conditions: in vivo
[15] = Toxicity in Kunming mouse assessed as change in kidney index at 2000 mg/kg, po measured for 7 days; type: organism-based; conditions: in vivo, 168 h, time 7 day
[16] = Chemical stability of compound in pH 7.4 PBS buffer at 100 uM incubated for 24 hrs by HPLC analysis; type: physicochemical; conditions: pH 7.4, 24 h
[17] = tested on: Mus musculus; experiment: Anti-ulcerative colitis activity against BALB/c oxazolone-induced ulcerative colitis mouse model assessed as prevention of oxazolone-induced edema at 1.5 mg/kg, po by H and E staining based histopathological analysis; type: functional, organism-based
[18] = Toxicity in Kunming mouse assessed as change in spleen index at 2000 mg/kg, po measured for 7 days; type: organism-based; conditions: in vivo, 168 h, time 7 day
[19] = tested on: Mus musculus; experiment: Immunosuppressive activity in BALB/c mouse assessed as reduction in CD49+ NK cell count at 1.5 mg/kg, ig bid measured after 4 days by flow cytometry analysis; type: functional, organism-based; conditions: time 4.0 day
[20] = Prodrug conversion in Sprague-Dawley rat assessed as AUC (0 to infinity) of tofacitinib at 22.5 mg/kg, po measured up to 20 hrs by LC-MS/MS analysis; type: ADME, organism-based; parameters: route oral, dose 22.5 mg/kg, time <=20; conditions: in vivo
[21] = tested on: Mus musculus; experiment: Immunosuppressive activity in BALB/c mouse assessed as reduction in spleen index at 1.5 mg/kg, ig bid measured after 4 days by flow cytometry analysis; type: functional, organism-based; conditions: time 4.0 day
[22] = Prodrug conversion in BALB/c mouse plasma assessed as tofacitinib AUC(0 to 12 hrs) at 22.5 mg/kg, po measured upto 12 hrs by LC-MS/MS analysis; type: ADME, organism-based; parameters: route oral, dose 22.5 mg/kg, time <=12; conditions: in vivo
[23] = tested on: Mus musculus; experiment: Anti-ulcerative colitis activity against oxazolone-induced ulcerative colitis BALB/c mouse model assessed as improvement in spleen index at 1.5 mg/kg, po bid measured after 4 days; type: functional, organism-based; conditions: time 4.0 day
[24] = tested on: Mus musculus; experiment: Anti-ulcerative colitis activity against BALB/c oxazolone-induced ulcerative colitis mouse model assessed as preserved intestinal mucosal epithelial integrity at 1.5 mg/kg, po by H and E staining based histopathological analysis; type: functional, organism-based
[25] = Acute toxicity in Kunming mouse assessed as animal death at 2000 mg/kg, po measured for 7 days; type: organism-based; conditions: in vivo, 168 h, time 7 day
[26] = Prodrug conversion in BALB/c mouse duodenum assessed as tofacitinib AUC(0 to 12 hrs) at 22.5 mg/kg, po measured upto 12 hrs by LC-MS/MS analysis; type: ADME, organism-based; parameters: route oral, dose 22.5 mg/kg, time <=12; conditions: in vivo
[27] = Acute toxicity in Kunming mouse assessed as change in urea level in kidney at 2000 mg/kg, po measured for 7 days; type: organism-based; conditions: in vivo, 168 h, time 7 day
[28] = Prodrug conversion in Sprague-Dawley rat colon content suspension assessed as tofacitinib release measured upto 8 hrs by HPLC analysis; type: ADME, tissue-based
[29] = Chemical stability of compound in pH 1.2 HCl buffer at 100 uM incubated for 24 hrs by HPLC analysis; type: physicochemical; conditions: pH 1.2, 24 h
[30] = Toxicity in Kunming mouse assessed as change in liver index at 2000 mg/kg, po measured for 7 days; type: organism-based; conditions: in vivo, 168 h, time 7 day
[31] = Prodrug conversion in Sprague-Dawley rat assessed as elimination half life of tofacitinib at 22.5 mg/kg, po measured up to 20 hrs by LC-MS/MS analysis; type: ADME, organism-based; conditions: in vivo
[32] = Ratio of prodrug conversion in BALB/c mouse intestine assessed as tofacitinib AUC(0 to 12 hrs) at 22.5 mg/kg, po to prodrug conversion in BALB/c mouse jejunum assessed as tofacitinib AUC(0 to 12 hrs) at 22.5 mg/kg, po; type: ADME, organism-based; conditions: in vivo
[33] = tested on: Mus musculus; experiment: Anti-ulcerative colitis activity against BALB/c oxazolone-induced ulcerative colitis mouse model assessed as prevention of oxazolone-induced leukocyte infiltration at 1.5 mg/kg, po by H and E staining based histopathological analysis; type: functional, organism-based
[34] = Ratio of prodrug conversion in BALB/c mouse intestine assessed as tofacitinib AUC(0 to 12 hrs) at 22.5 mg/kg, po to prodrug conversion in BALB/c mouse ileum assessed as tofacitinib AUC(0 to 12 hrs) at 22.5 mg/kg, po; type: ADME, organism-based; conditions: in vivo
[35] = Acute toxicity in Kunming mouse model assessed as increase in body weight at 2000 mg/kg, po measured for 7 days; type: organism-based; conditions: in vivo, 168 h, time 7 day
[36] = Chemical stability in simulated intestinal fluid assessed as parent compound remaining incubated for 12 hrs by LC-MS/MS analysis; type: ADME, physicochemical; conditions: simulated gi fluid
[37] = Prodrug conversion in Sprague-Dawley rat assessed as tofacitinib release at 22.5 mg/kg, po measured after 1 hr by HPLC analysis; type: ADME, organism-based; conditions: in vivo
[38] = Ratio of prodrug conversion in BALB/c mouse intestine assessed as tofacitinib AUC(0 to 12 hrs) at 22.5 mg/kg, po to prodrug conversion in BALB/c mouse duodenum assessed as tofacitinib AUC(0 to 12 hrs) at 22.5 mg/kg, po; type: ADME, organism-based; conditions: in vivo
[39] = tested on: Mus musculus; experiment: Anti-ulcerative colitis activity against BALB/c oxazolone-induced ulcerative colitis mouse model assessed as prevention of oxazolone-induced increase in shortening of colon length at 1.5 mg/kg, po bid measured after 4 days; type: functional, organism-based; conditions: time 4.0 day
[40] = Acute toxicity in Kunming mouse assessed as change in ALT level in liver at 2000 mg/kg, po measured for 7 days; type: organism-based; conditions: in vivo, 168 h, time 7 day
[41] = Acute toxicity in Kunming mouse assessed as change in creatine level in kidney at 2000 mg/kg, po measured for 7 days; type: organism-based; conditions: in vivo, 168 h, time 7 day
[42] = tested on: Mus musculus; experiment: Anti-ulcerative colitis activity against oxazolone induced ulcerative colitis Balb/c mouse model assessed as prevention of body weight loss at 1.5 mg/kg, po bid incubated for 24 hrs; type: functional, organism-based

In the case of `C[C@@H]1CCN(C(=O)CC#N)C[C@@H]1N(C)c1ncnc2c1ccn2C(=O)N(C)CCN(C)C(=O)OCc1ccc(/N=N/c2ccc(O)c(C(=O)O)c2)cc1Cl`, the Stability [1] is reported as “Stable”, the Cmax [2] is reported as 2.49 µM and the Activity [3] is reported as “Non-Toxic”. For the same molecule, the “Ratio AUC” value [4] was 9.61, the Activity [5] was “Active” and the Activity [6] was “Active”. For the same molecule, the AUC [7] was 1600 µM·h, the Stability [8] was “Stable” and the Activity [9] was “Active”. For the same molecule, the Activity [10] was “Active”, the Activity [11] was “Active” and the AUC [12] was 193 µM·h. For the same molecule, the Tmax [13] was 8 h, the AUC [14] was 357 µM·h and the Activity [15] was “Non-Toxic”. For the same molecule, the Stability [16] was “Stable”, the Activity [17] was “Active” and the Activity [18] was “Non-Toxic”. The Activity [19] was “inactive”, the AUC [20] was 19.27 µM·h and the Activity [21] was “inactive”. The AUC [22] was 4.5 µM·h, the Activity [23] was “Active” and the Activity [24] was “Active”. The Activity [25] was “Non-Toxic”, the AUC [26] was 99 µM·h and the Activity [27] was “Non-Toxic”. For the same molecule, the Drug metabolism [28] was 3.22 mmol/L/h, the Stability [29] was “Stable” and the Activity [30] was “Non-Toxic”. For the same molecule, the “beta t1/2” value [31] was 3.09 h, the “Ratio AUC” value [32] was 4.49 and the Activity [33] was “Active”. The “Ratio AUC” value [34] was 7.1, the Activity [35] was “Non-Toxic” and the Stability [36] was “Stable”. The Drug metabolism [37] was “Metabolite_Detected”, the “Ratio AUC” value [38] was 1.48 and the Activity [39] was “Active”. The Activity [40] was “Non-Toxic”, the Activity [41] was “Non-Toxic” and the Activity [42] was “Active”.
